# Measurements published in US9278902B2, “Crystal form of prostaglandin analogue, and preparation method and use thereof” (Shanghai Techwell Biopharmaceutical Co., Ltd., priority 2012, dated 2016).
# What was measured:
# [1] = Stability test at 40° C., HPLC purity; format: physicochemical
# Protocol: As used herein, “HPLC purity” refers to the percentage of the peak area of compound I obtained by area normalization method in the sum of all the peak area in HPLC detection applied to compound I, according to the obtained chromatogram.
# (§1) Column: 4.6×250 mm 5 μm C18 column; flow rate: 2 ml/min; injection volume: 10 μl; column temperature: 35° C.; detection wavelength: 217 nm; mobile phase: acetonitrile/water/trifluoroacetic acid; Elution condition: water (60%): acetonitrile (40%): trifluoroacetic acid (0.1%); detection limit: 10 ng.
# The purity mentioned in the following Examples is HPLC purity.
# (§2) Compound I from example 2, example 3 and example 4 were obtained, and subjected to stability test at 40° C., respectively. […] Therefore, crystalline form B of compound I prepared by the method of the present invention has unique stability.
# [2] = cited from earlier work
# [3] = Storage stability of crystalline form B by HPLC (0° C., 20° C., 40° C.); format: physicochemical
# Protocol: as §1, §2
compound,measurement,setting,value
CCCCC[C@H](O)CC[C@@H]1[C@H]2Cc3cccc(OCC(=O)O)c3C[C@H]2C[C@H]1O [Example 4],Purity at 0 day (40° C.),"[1]; stability test at 40° C., 0 day (start)",99.90%
same,Purity at 10 day (40° C.),"[1]; stored at 40° C., 10 day",99.91%
same,Purity at 30 day (40° C.),"[1]; stored at 40° C., 30 day",99.89%
same,Purity at 90 day (40° C.),"[1]; stored at 40° C., 90 day",99.88%
CCCCC[C@H](O)CC[C@@H]1[C@H]2Cc3cccc(OCC(=O)O)c3C[C@H]2C[C@H]1O [Treprostinil],Stability under physiological conditions,[2],stable
CCCCC[C@H](O)CC[C@@H]1[C@H]2Cc3cccc(OCC(=O)O)c3C[C@H]2C[C@H]1O [crystalline form B of compound I],Degradation on storage (HPLC),[3]; stored at 0° C. for 12 months,did not degrade at all
same,Degradation on storage (HPLC),[3]; stored at 20° C. for 6 months,did not degrade at all
same,Degradation on storage (HPLC),[3]; stored at 40° C. for 2 months,did not degrade at all
